Laboratory results as given in publication PMC3544154 (Nature communications, 2011).

System: neuroligin-1 induced synaptogenesis
Assay: Synapse microarray coculture assay: NLG1-induced synapsin clustering
Format: cell-based, rat
Conditions: for activity in coculture assay / NLG1-induced synaptogenesis (in words): synapse microarray, no single concentration stated

Structure (SMILES) | activity in coculture assay / NLG1-induced synaptogenesis (in words) | effect on NLG1-induced synaptogenesis (in words) (10 μM)
Cc1[nH]c2ccccc2c1CCNCc1ccc(/C=C/C(=O)NO)cc1 [LBH-589] | potent | 
CCC(=O)CCCCC[C@@H]1NC(=O)[C@H]2CCCCN2C(=O)[C@H]([C@@H](C)CC)NC(=O)[C@H](Cc2cn(OC)c3ccccc23)NC1=O [apicidin] | greater potency than MS-275 | 
O=C(CCCCCN1C(=O)c2cccc3cccc(c23)C1=O)NO [scriptaid] | potent | 
CCCC(CCC)C(=O)O [valproic acid] |  | neither of the two compounds, valproic acid and phenylbutyric acid, affected synaptogenesis
